We go through one molecule from the NIST ThermoML archive (doi:10.1016/j.jct.2016.08.034).

Each structure is given as a SMILES string. Numbers after ± are expanded uncertainties.

The conditions of the data set: Crystal; DTA.

As for `C=CC(=O)N1CCC[C@@H](n2nc(-c3ccc(Oc4ccccc4)cc3)c3c(N)ncnc32)C1` [Ibrutinib], the Normal melting temperature was found to be 153.13 ± 1.1 °C.
